{"source": "patent US20230087609A1", "about": "“USE OF A SOLUBLE GUANYLATE CYCLASE (sGC) STIMULATOR OR OF A COMBINATION OF A sGC STIMULATOR AND AN sGC ACTIVATOR FOR CONDITIONS WHEREIN THE HEME GROUP OF sGC IS OXIDIZED OR WHEREIN sGC IS DEFICIENT IN HEME” (Universiteit Maastricht, priority 2020, published 2023)", "target": "T1, human apo-sGC (sGCα1 / mutant sGCβ1H105F) (Homo sapiens, UniProt Q02153, H105F)", "T1 construct": "His tag; made in house; host or cells: Sf9 cells infected with recombinant baculoviruses (provided by E. Martin); sonicated lysate, supernatant used unpurified", "T1 sequence (Q02153 1-619 H105F)": "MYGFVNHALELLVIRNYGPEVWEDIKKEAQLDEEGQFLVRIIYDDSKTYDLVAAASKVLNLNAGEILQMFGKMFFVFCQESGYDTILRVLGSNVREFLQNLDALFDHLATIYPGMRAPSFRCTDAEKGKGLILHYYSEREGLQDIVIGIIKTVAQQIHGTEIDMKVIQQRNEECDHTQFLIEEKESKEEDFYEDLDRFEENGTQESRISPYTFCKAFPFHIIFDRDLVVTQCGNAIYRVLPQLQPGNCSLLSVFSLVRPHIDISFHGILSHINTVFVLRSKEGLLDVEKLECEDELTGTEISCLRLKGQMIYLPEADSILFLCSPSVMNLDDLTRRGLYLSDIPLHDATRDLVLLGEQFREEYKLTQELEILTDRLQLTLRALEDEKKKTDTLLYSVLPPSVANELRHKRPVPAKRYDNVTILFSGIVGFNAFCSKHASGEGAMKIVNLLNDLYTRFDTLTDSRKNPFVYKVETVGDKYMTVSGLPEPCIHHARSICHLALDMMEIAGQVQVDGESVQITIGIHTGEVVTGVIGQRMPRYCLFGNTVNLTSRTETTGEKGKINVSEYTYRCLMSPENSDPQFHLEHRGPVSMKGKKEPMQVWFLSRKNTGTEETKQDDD", "T1 sequence (Q02108 1-690 partner)": "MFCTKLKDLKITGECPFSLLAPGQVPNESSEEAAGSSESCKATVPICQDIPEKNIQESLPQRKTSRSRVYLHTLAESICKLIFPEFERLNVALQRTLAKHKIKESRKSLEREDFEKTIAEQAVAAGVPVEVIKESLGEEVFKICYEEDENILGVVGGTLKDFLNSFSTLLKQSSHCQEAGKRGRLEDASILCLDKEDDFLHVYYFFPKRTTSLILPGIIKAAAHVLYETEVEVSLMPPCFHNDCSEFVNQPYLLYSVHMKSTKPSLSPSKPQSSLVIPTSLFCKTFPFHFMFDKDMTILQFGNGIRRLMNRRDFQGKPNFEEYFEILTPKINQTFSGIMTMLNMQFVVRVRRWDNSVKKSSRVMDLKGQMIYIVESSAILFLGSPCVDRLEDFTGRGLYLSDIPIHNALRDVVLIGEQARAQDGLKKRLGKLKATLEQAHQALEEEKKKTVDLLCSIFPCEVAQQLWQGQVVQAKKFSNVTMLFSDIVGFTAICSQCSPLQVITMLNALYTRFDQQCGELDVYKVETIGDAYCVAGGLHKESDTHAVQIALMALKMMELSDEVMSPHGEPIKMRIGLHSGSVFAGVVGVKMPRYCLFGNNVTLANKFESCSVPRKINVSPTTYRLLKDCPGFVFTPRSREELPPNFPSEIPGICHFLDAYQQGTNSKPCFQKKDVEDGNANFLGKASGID", "experiment": "sGC activity of human apo-sGC expressed in SF-9 cells", "type": "biochemical", "protocol": "To measure sGC activity, cells were stimulated with 250 μM DEA/NO or 10 μM BAY58-2667 for 3 min at 37° C. Thereafter, cells were immediately lysed in 80% ethanol. Cells were scraped and, after evaporation of ethanol, re-suspended in assay buffer and sonicated. Measurement of sGC activity in crude homogenates of mouse tissue was performed as previously described (Nedvetsky et al., Brain Res. 2002; 950(1-2):148-154. doi: 10.1016/50006-8993(02)03015-9).[9] Briefly, all samples were measured as the formation of cGMP at 37° C. during 10 min in a total incubation volume of […] containing 50 mM triethanolamine-HCl (pH 7.4), 3 mM MgCl2, 3 mM glutathione (Carl Roth, Karlsruhe, Germany), 1 mM IBMX, […], 5 mM creatine phosphate, 0.25 mg/ml creatine kinase and 1 mM or 0.5 mM GTP. After adding sGC activator in the absence or presence of the sGC stimulator the reaction was started by application of GTP solution. […] Thereafter the amount of cGMP was subsequently determined by a commercial enzyme immunoassay kit (Enzo Life Sciences, Lorrach, Germany or Biotrend, Cologne, Germany). […]\nRecombinant baculoviruses containing the cDNAs for the sGCa1 subunit with a His tag and mutant sGCβ31H105F with a His tag of human sGC were provided by E. Martin (Houston, Tex., USA). […] Protein concentrations were determined by the RC DC protein assay kit (Bio-Rad, Cat. no. 5000122)."}
{"compound": "Nc1nc(-c2nn(Cc3ccccc3F)c3ncccc23)ncc1C1CC1", "note": "[BAY 41-2272, 5-cyclopropyl-2-[1-(2-fluoro-benzyl)-1H-pyrazolo[3,4-b]pyridin-3-yl]-pyrimidin-4-ylamine]", "values": [{"measurement": "sGC activity / cGMP formation in presence of ODQ", "setting": "10 μM BAY 41-2272 + 10 μM ODQ (FIG. 8)", "result": "improves the formation of cGMP"}, {"measurement": "sGC activity / cGMP production", "setting": "10 μM BAY 41-2272 alone (FIG. 8)", "result": "activated and cGMP is (increasingly) produced"}]}
